# ChEMBL document CHEMBL1201862, “PubChem BioAssay data set” (2004)
#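 Growth conditions: 96-well plates. Treatment: test compound, 48 hours, 5 concentrations. Analysis: linear interpolation between bracketing concentrations; unreached endpoints set to highest concentration. At the GI50, growth is halved.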 Active and inactive are the calls of the source. No stated cut-off is given here; in the data, active = GI50 up to about 1.1 µM and inactive = higher.
# Tests used:
# Experiment in all cases: growth of human tumour cells (NCI), 48 h
# NCI-H522 = tested on: NCI-H522
# BT-549 = tested on: BT-549
# IGROV-1 = tested on: IGROV-1
# SK-MEL-2 = tested on: SK-MEL-2
# MOLT-4 = tested on: MOLT-4
# K562 = tested on: K562
# SNB-19 = tested on: SNB-19
# 786-0 = tested on: 786-0
# RPMI-8226 = tested on: RPMI-8226
# OVCAR-4 = tested on: OVCAR-4
# OVCAR-3 = tested on: OVCAR-3
# RXF 393 = tested on: RXF 393
# SF-268 = tested on: SF-268
# A549 = tested on: A549
# CCRF-CEM = tested on: CCRF-CEM
# NCI-H23 = tested on: NCI-H23
# SNB-75 = tested on: SNB-75
# M14 = tested on: M14
# MCF7 = tested on: MCF7
# SF-539 = tested on: SF-539
# HT-29 = tested on: HT-29
# MDA-N = tested on: MDA-N
# Malme-3M = tested on: Malme-3M
# DU-145 = tested on: DU-145
# NCI-H460 = tested on: NCI-H460
# UACC-62 = tested on: UACC-62
# HCC 2998 = tested on: HCC 2998
# COLO 205 = tested on: COLO 205
# ACHN = tested on: ACHN
# SR = tested on: SR
# TK-10 = tested on: TK-10
# SK-MEL-5 = tested on: SK-MEL-5
# SW-620 = tested on: SW-620
# OVCAR-5 = tested on: OVCAR-5
# CAKI-1 = tested on: CAKI-1
# OVCAR-8 = tested on: OVCAR-8
# UACC-257 = tested on: UACC-257
# HOP-92 = tested on: HOP-92
# SF-295 = tested on: SF-295
# HCT-15 = tested on: HCT-15
# NCI/ADR-RES = tested on: NCI/ADR-RES
# HCT-116 = tested on: HCT-116
# SK-MEL-28 = tested on: SK-MEL-28
# EKVX = tested on: EKVX
# NCI-H226 = tested on: NCI-H226
# PC-3 = tested on: PC-3
# KM12 = tested on: KM12
# UO-31 = tested on: UO-31
# U-251 = tested on: U-251
# SN12C = tested on: SN12C
# HL-60 = tested on: HL-60
# SK-OV-3 = tested on: SK-OV-3
# A498 = tested on: A498
# MDA-MB-435 = tested on: MDA-MB-435
# Hs-578T = tested on: Hs-578T
# LOX IMVI = tested on: LOX IMVI
# HOP-62 = tested on: HOP-62
# MDA-MB-231 = tested on: MDA-MB-231
structure (smiles),measurement,setting,value
Nc1ccc2nc3n(c2c1)C(=O)c1ccccc1-3,GI50,NCI-H522,> 100 µM (inactive)
same,GI50,BT-549,> 100 µM (inactive)
same,GI50,IGROV-1,> 100 µM (inactive)
same,GI50,SK-MEL-2,> 100 µM (inactive)
same,GI50,MOLT-4,> 100 µM (inactive)
same,GI50,K562,> 100 µM (inactive)
same,GI50,SNB-19,> 100 µM (inactive)
same,GI50,786-0,> 100 µM (inactive)
same,GI50,RPMI-8226,> 100 µM (inactive)
same,GI50,OVCAR-4,> 100 µM (inactive)
same,GI50,OVCAR-3,> 100 µM (inactive)
same,GI50,RXF 393,> 100 µM (inactive)
same,GI50,SF-268,> 100 µM (inactive)
same,GI50,A549,> 100 µM (inactive)
same,GI50,CCRF-CEM,> 100 µM (inactive)
same,GI50,NCI-H23,> 100 µM (inactive)
same,GI50,SNB-75,> 100 µM (inactive)
same,GI50,M14,> 100 µM (inactive)
same,GI50,MCF7,> 100 µM (inactive)
same,GI50,SF-539,> 100 µM (inactive)
same,GI50,HT-29,> 100 µM (inactive)
same,GI50,MDA-N,> 100 µM (inactive)
same,GI50,Malme-3M,> 100 µM (inactive)
same,GI50,DU-145,> 100 µM (inactive)
same,GI50,NCI-H460,> 100 µM (inactive)
same,GI50,UACC-62,> 100 µM (inactive)
same,GI50,HCC 2998,> 100 µM (inactive)
same,GI50,COLO 205,> 100 µM (inactive)
same,GI50,ACHN,> 100 µM (inactive)
same,GI50,SR,> 100 µM (inactive)
same,GI50,TK-10,> 100 µM (inactive)
same,GI50,SK-MEL-5,> 100 µM (inactive)
same,GI50,SW-620,> 100 µM (inactive)
same,GI50,OVCAR-5,> 100 µM (inactive)
same,GI50,CAKI-1,> 100 µM (inactive)
same,GI50,OVCAR-8,> 100 µM (inactive)
same,GI50,UACC-257,> 100 µM (inactive)
same,GI50,HOP-92,> 100 µM (inactive)
same,GI50,SF-295,> 100 µM (inactive)
same,GI50,HCT-15,> 100 µM
same,GI50,NCI/ADR-RES,> 100 µM (inactive)
same,GI50,HCT-116,> 100 µM (inactive)
same,GI50,SK-MEL-28,> 100 µM (inactive)
same,GI50,EKVX,> 100 µM (inactive)
same,GI50,NCI-H226,> 100 µM (inactive)
same,GI50,PC-3,> 100 µM (inactive)
same,GI50,KM12,> 100 µM (inactive)
same,GI50,UO-31,> 100 µM (inactive)
same,GI50,U-251,> 100 µM (inactive)
same,GI50,SN12C,> 100 µM (inactive)
same,GI50,HL-60,> 100 µM (inactive)
same,GI50,SK-OV-3,> 100 µM (inactive)
COc1ccc(OC)c(/C=N/N=C2\C(=O)Nc3c(Cl)cc(Cl)cc32)c1,GI50,BT-549,26.1 µM (inactive)
same,GI50,IGROV-1,34.3 µM (inactive)
same,GI50,SK-MEL-2,21.2 µM (inactive)
same,GI50,MOLT-4,23.8 µM (inactive)
same,GI50,K562,36 µM (inactive)
same,GI50,SNB-19,> 100 µM (inactive)
same,GI50,786-0,33.3 µM (inactive)
same,GI50,A498,71.6 µM (inactive)
same,GI50,OVCAR-4,38.2 µM (inactive)
same,GI50,OVCAR-3,70.3 µM (inactive)
same,GI50,RXF 393,66.2 µM (inactive)
same,GI50,MDA-MB-435,32.7 µM (inactive)
same,GI50,A549,> 100 µM (inactive)
same,GI50,CCRF-CEM,59.7 µM (inactive)
same,GI50,NCI-H23,48.4 µM (inactive)
same,GI50,SNB-75,0.505 µM (active)
same,GI50,M14,68.4 µM (inactive)
same,GI50,MCF7,46.1 µM (inactive)
same,GI50,SF-539,38 µM (inactive)
same,GI50,HT-29,63.4 µM (inactive)
same,GI50,MDA-N,20 µM (inactive)
same,GI50,Malme-3M,> 100 µM (inactive)
same,GI50,NCI-H460,63.5 µM (inactive)
same,GI50,Hs-578T,20.4 µM (inactive)
same,GI50,LOX IMVI,47.6 µM (inactive)
same,GI50,UACC-62,55.6 µM (inactive)
same,GI50,HCC 2998,> 100 µM (inactive)
same,GI50,COLO 205,> 100 µM (inactive)
same,GI50,ACHN,52.4 µM (inactive)
same,GI50,SR,25.1 µM (inactive)
same,GI50,TK-10,> 100 µM (inactive)
same,GI50,SK-MEL-5,56.1 µM (inactive)
same,GI50,HOP-62,19 µM (inactive)
same,GI50,SW-620,43.4 µM (inactive)
same,GI50,OVCAR-5,> 100 µM (inactive)
same,GI50,CAKI-1,71.3 µM (inactive)
same,GI50,OVCAR-8,61 µM (inactive)
same,GI50,UACC-257,> 100 µM (inactive)
same,GI50,HOP-92,47.3 µM (inactive)
same,GI50,SF-295,32.1 µM (inactive)
same,GI50,HCT-15,36.6 µM
same,GI50,NCI/ADR-RES,20.2 µM (inactive)
same,GI50,HCT-116,52.4 µM (inactive)
same,GI50,SK-MEL-28,> 100 µM (inactive)
same,GI50,EKVX,8.67 µM (inactive)
same,GI50,NCI-H226,82.6 µM (inactive)
same,GI50,PC-3,38.8 µM (inactive)
same,GI50,KM12,35.4 µM (inactive)
same,GI50,UO-31,41.6 µM (inactive)
same,GI50,U-251,38.7 µM (inactive)
same,GI50,MDA-MB-231,34 µM (inactive)
same,GI50,SN12C,> 100 µM (inactive)
same,GI50,HL-60,43.8 µM (inactive)
same,GI50,SK-OV-3,72.6 µM (inactive)
